The results in this text go back to US20220324835A1 (Nurix Therapeutics, Inc., priority 2018, published 2022).

The subject of the test is T-cell. The test can be described thus: CD25 cell surface staining on T-cells stimulated with anti-CD3 antibody alone (Biological Example 2). The format is cell-based. Particulars: primary human total T-cells, baseline = anti-CD3/anti-CD28 stimulated cells without inhibitor, read-out: CD25 staining, Anti-CD3 stimulation, fold change over baseline; for fold induction at 1 µM: 1 μM compound; for fold induction at 8 µM: 8 μM compound.

For `Cn1cnnc1CC1(c2cccc(N3Cc4c(cc(CN5CC[C@H](F)C5)cc4C(F)(F)F)C3=O)c2)COC1` [Compound 410, 6-{[(3S)-3-fluoropyrrolidin-1-yl]methyl}-2-(3-{3-[(4-methyl-4H-1,2,4-triazol-3-yl)methyl]oxetan-3-yl}phenyl)-4-(trifluoromethyl)-2,3-dihydro-1H-isoindol-1-one], the fold induction at 1 µM was greater than 1 and the fold induction at 8 µM was greater than 1.

Regarding `Cn1cnnc1CC1(c2cccc(N3Cc4c(cc(CN5CC[C@@H](C#N)C5)cc4C(F)(F)F)C3=O)c2)COC1` [Compound 421, (R)-1-((2-(3-(3-((4-methyl-4H-1,2,4-triazol-3-yl)methyl)oxetan-3-yl)phenyl)-3-oxo-7-(trifluoromethyl)isoindolin-5-yl)methyl)pyrrolidine-3-carbonitrile], the fold induction at 1 µM is greater than 1 and the fold induction at 8 µM is greater than 1.

As for `Cn1cnnc1CC1(c2cccc(N3Cc4c(cc(CN5C[C@H]6C[C@H]6C5)cc4C(F)(F)F)C3=O)c2)COC1` [Compound 429, 6-(((1R,5S)-3-azabicyclo[3.1.0]hexan-3-yl)methyl)-2-(3-(3-((4-methyl-4H-1,2,4-triazol-3-yl)methyl)oxetan-3-yl)phenyl)-4-(trifluoromethyl)isoindolin-1-one], the fold induction at 1 µM was greater than 1 and the fold induction at 8 µM is greater than 1.

For `Cn1cnnc1CC1(c2cccc(N3Cc4c(cc(CN5CCC[C@H](F)C5)cc4C(F)(F)F)C3=O)c2)COC1` [Compound 432, 6-{[(3S)-3-fluoropiperidin-1-yl]methyl}-2-(3-{3-[(4-methyl-4H-1,2,4-triazol-3-yl)methyl]oxetan-3-yl}phenyl)-4-(trifluoromethyl)-2,3-dihydro-1H-isoindol-1-one], the fold induction at 1 µM was greater than 1.

For `Cn1cnnc1C(F)(F)[C@](C)(F)c1cccc(N2Cc3c(cc(CN4CC[C@H](F)C4)cc3C(F)(F)F)C2=O)c1` [Compound 447, 6-(((S)-3-fluoropyrrolidin-1-yl)methyl)-2-(3-((R)-1,1,2-trifluoro-1-(4-methyl-4H-1,2,4-triazol-3-yl)propan-2-yl)phenyl)-4-(trifluoromethyl)isoindolin-1-one], the fold induction at 1 µM was greater than 1 and the fold induction at 8 µM was greater than 1.

On to `Cn1cnnc1C(F)(F)[C@](C)(F)c1cccc(N2Cc3c(cc(CN4CCC(F)(F)C4)cc3C(F)(F)F)C2=O)c1` [Compound 448, (R)-6-((3,3-difluoropyrrolidin-1-yl)methyl)-2-(3-(1,1,2-trifluoro-1-(4-methyl-4H-1,2,4-triazol-3-yl)propan-2-yl)phenyl)-4-(trifluoromethyl)isoindolin-1-one], for which the fold induction at 1 µM lay within 0.801 to 1 and the fold induction at 8 µM was greater than 1.

As to `Cn1cnnc1CC1(c2cccc(N3Cc4c(cc(CN5CC6(CC6)C5)cc4C(F)(F)F)C3=O)c2)COC1` [Compound 487, 6-{5-azaspiro[2.3]hexan-5-ylmethyl}-2-(3-{3-[(4-methyl-1,2,4-triazol-3-yl)methyl]oxetan-3-yl}phenyl)-4-(trifluoromethyl)-3H-isoindol-1-one], the fold induction at 1 µM was greater than 1.

`Cn1cnnc1CC1(c2cccc(NC(=O)c3cc(CN4CC[C@H](F)C4)cc(C4CC4)n3)c2)COC1` [Compound 496, 6-cyclopropyl-4-{[(3S)-3-fluoropyrrolidin-1-yl]methyl}-N-(3-{3-[(4-methyl-1,2,4-triazol-3-yl)methyl]oxetan-3-yl}phenyl)pyridine-2-carboxamide]: the fold induction at 1 µM is greater than 1.

For the molecule `C[C@@H](c1cc2c(c(C(F)(F)F)c1)CN(c1cccc(C3(Cc4nncn4C)COC3)c1)C2=O)N1C[C@H]2C[C@H]2C1` [Compound 541a, 6-((1S)-1-(3-azabicyclo[3.1.0]hexan-3-yl)ethyl)-2-(3-(3-((4-methyl-4H-1,2,4-triazol-3-yl)methyl)oxetan-3-yl)phenyl)-4-(trifluoromethyl)isoindolin-1-one], the fold induction at 1 µM was greater than 1.
